Values joined by “and” are separate entries in the source; they are usually repeats but may differ in a detail not shown here. Equal values may be shown once.
Columns and labels:
AKIII-M3 = biological target: T1, AKIII-M3 (Escherichia coli, UniProt P08660, G401A/T352I); experiment: AK enzyme assay, sensitivity to L-lysine; format: biochemical, E. coli; conditions: 15 mM L-lysine
T1 construct: made in house; host or cells: E. coli BL21(DE3), crude extract
Procedure: (§1) AK activity was assayed as shown below:
(§2) Assay mix (for 12 assay tubes): • 4.5 mL H2O • 1.0 mL 8M KOH • 1.0 mL 8M NH2OH-HCl • 1.0 mL IM Tris-HCl pH 8.0 • 0.5 mL 0.2M ATP (121 mg/mL in 0.2M NaOH) • 50 μL 1M MgSO4
(§3) Each 1.5 mL eppendorf assay tube contained: • 0.64 mL assay mix • 0.04 mL 0.2 M L-aspartic acid or 0.04 mL H2O • 0.0005-0.12 mL extract • H2O to total volume 0.8 mL
(§4) Assay tubes were incubated at 30° C. for desired time (10-60 min). Then 0.4 mL FeCl3 reagent (10% w/v FeCl3, 3.3% trichloroacetic acid, 0.7 M HCl) was added and the material centrifuged for 2 min in an eppendorf centrifuge. The supernatant was decanted. The OD was read at 540 nm and compared to the aspartyl-hydroxamate standard.
(§5) Approximately 80% of the AKIII activity was in the supernatant fraction. The specific activity of wild type and mutant crude extracts was 5-7 μM product per min per milligram total protein. Wild type AKIII was sensitive to the presence of L-lysine in the assay.

AKIII-M4 = biological target: T2, AKIII-M4 (Escherichia coli, UniProt P08660, G401A/T352I); experiment: AK enzyme assay, sensitivity to L-lysine; format: biochemical, E. coli; conditions: 15 mM L-lysine
T2 construct: made in house; host or cells: E. coli BL21(DE3), crude extract
T2 sequence (P08660 other isoform, or with tags, fused parts or gaps T352I/G401A): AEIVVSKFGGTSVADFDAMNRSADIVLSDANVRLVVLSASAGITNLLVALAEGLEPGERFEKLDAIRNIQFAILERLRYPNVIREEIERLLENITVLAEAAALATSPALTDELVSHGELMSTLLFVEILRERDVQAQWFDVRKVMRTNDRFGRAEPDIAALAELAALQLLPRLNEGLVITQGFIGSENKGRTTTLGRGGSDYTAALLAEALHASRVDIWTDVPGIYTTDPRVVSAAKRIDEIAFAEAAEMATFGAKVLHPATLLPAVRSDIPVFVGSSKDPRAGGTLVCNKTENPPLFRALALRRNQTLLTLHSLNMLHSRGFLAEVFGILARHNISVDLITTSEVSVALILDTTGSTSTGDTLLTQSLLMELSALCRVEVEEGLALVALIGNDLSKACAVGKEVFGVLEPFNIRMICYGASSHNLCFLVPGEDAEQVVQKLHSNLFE
Procedure: as §1, §2, §3, §4, §5

AKIII-M2 = biological target: T3, AKIII-M2 (Escherichia coli, UniProt P08660, G401A/M318I); experiment: AK enzyme assay, sensitivity to L-lysine; format: biochemical, E. coli; conditions: 15 mM L-lysine
T3 construct: made in house; host or cells: E. coli BL21(DE3), crude extract
T3 sequence (P08660 other isoform, or with tags, fused parts or gaps M318I/G401A): as the sequence (P08660 other isoform, or with tags, fused parts or gaps T352I/G401A) above, with M317I, I351T counted along it
Procedure: as §1, §2, §3, §4, §5

Wild type AKIII = biological target: T4, Wild type AKIII (Escherichia coli, UniProt P08660, G401A); experiment: AK enzyme assay, sensitivity to L-lysine; format: biochemical, E. coli
T4 construct: the coding region of the wild type E. coli lysC gene, which encodes AKIII; made in house; host or cells: E. coli BL21(DE3), supernatant of crude extract
T4 sequence (P08660 other isoform, or with tags, fused parts or gaps G401A): as the sequence (P08660 other isoform, or with tags, fused parts or gaps T352I/G401A) above, with I351T counted along it
Procedure: as §1, §2, §3, §4, §5

DE126 = experiment: Growth inhibition by L-lysine in synthetic medium; format: cell-based, E. coli
Procedure: (4) This step involves production of a male derivative of strain DE125. Strain DE125 was mated with the male strain AB1528 [F′16/delta(gpt-proA)62, lacY1 or lacZ4, glnV44, galK2 rac^−(?), hisG4, rfbd1, mgl-51, kdgK51(?), ilvC7, argE3, thi-1] (E. coli Genetic Stock Center #1528) by the method of conjugation. F′16 carries the ilvGMEDAYC gene cluster. The two strains were cross streaked on rich medium permissive for the growth of each strain. After incubation, the plate was replica plated to a synthetic medium containing tetracycline, arginine, vitamin B1 and glucose. DE125 cannot grow on this medium because it cannot synthesize isoleucine. Growth of AB1528 is prevented by the inclusion of the antibiotic tetracycline and the omission of proline and histidine from the synthetic medium. A patch of cells grew on this selective medium. These recombinant cells underwent single colony isolation on the same medium. The phenotype of one clone was determined to be Ilv^+, Arg^−, TetR, Lysine-sensitive, male specific phage (MS2)-sensitive, consistent with the simple transfer of F′16 from AB1528 to DE125. This clone was designated DE126 and has the genotype F′16/malE52::Tn10, arg^−, ilvA296, thrA1101, metL100, lysC^+, λ^−, rpsL9, malT1, xyl-7, mtl-2, thi-1?, supE44?. It is inhibited by 20 μg/mL of L-lysine in a synthetic medium.

Corynebacterium DHDPS = biological target: T5, Corynebacterium DHDPS (Corynebacterium glutamicum, UniProt P19808); experiment: DHDPS enzyme assay, sensitivity to L-lysine; format: biochemical; conditions: 70 mM L-lysine
T5 construct: made in house; host or cells: E. coli BL21(DE3), supernatant of uninduced extract
T5 sequence (P19808 other isoform, or with tags, fused parts or gaps): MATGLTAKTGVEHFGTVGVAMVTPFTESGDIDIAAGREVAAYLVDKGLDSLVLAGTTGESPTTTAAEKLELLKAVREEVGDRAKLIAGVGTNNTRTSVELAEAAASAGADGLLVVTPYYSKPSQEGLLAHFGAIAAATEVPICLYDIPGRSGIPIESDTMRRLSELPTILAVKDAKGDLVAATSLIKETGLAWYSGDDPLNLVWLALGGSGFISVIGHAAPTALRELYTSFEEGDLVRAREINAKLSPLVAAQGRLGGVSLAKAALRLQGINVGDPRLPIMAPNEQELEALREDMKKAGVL
Procedure: (§6) DHDPS enzyme activity was assayed as follows: Assay mix (for 10×1.0 mL assay tubes or 40×0.25 mL for microtiter dish); made fresh, just before use:
(§7) Color allowed to develop for 30-60 min. Precipitate spun down in eppendorf centrifuge. OD540 vs 0 min read as blank. For MicroAssay, aliquot 0.2 mL into microtiter well and read at OD530.
E. coli DHDPS was sensitive to the presence of L-lysine in the assay. Fifty percent inhibition was found at a concentration of about 0.5 mM. For Corynebacterium DHDPS, the activity was measured in the supernatant fraction of uninduced extracts, rather than induced extracts. Enzyme activity was about 4 OD530 units per min per milligram protein in a 0.25 mL assay.

E. coli DHDPS = biological target: T6, E. coli DHDPS (Escherichia coli, UniProt P0A6L2, F2V); experiment: biochemical; format: biochemical
T6 construct: the chloroplast targeting signal fused to the entire ecodapA coding region; expressed in transfected cells; host or cells: transgenic tobacco plants, leaf extracts (35S promoter) or mature seed extracts (phaseolin promoter)
T6 sequence (P0A6L2 whole entry F2V, the tested form may be a part): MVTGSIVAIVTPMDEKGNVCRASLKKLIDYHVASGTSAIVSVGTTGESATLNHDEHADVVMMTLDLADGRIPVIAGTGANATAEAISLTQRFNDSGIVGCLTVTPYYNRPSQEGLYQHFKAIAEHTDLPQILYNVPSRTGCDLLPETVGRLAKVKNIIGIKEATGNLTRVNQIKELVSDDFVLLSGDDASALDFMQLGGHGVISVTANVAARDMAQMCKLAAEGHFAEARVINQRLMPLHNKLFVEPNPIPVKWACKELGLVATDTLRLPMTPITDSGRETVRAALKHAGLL
Procedure: as §6, §7
For Corynebacterium DHDPS, the activity was measured in the supernatant fraction of uninduced extracts, rather than induced extracts.

tobacco DHDPS = experiment: DHDPS enzyme assay of plant extracts, sensitivity to lysine; format: biochemical
Procedure: The leaf extracts were assayed for DHDPS activity as described in Example 4.
To test this hypothesis, total protein extracts were prepared from mature seeds and assayed for DHDPS activity. Approximately 30-40 mg of seeds were put into a 1.5 mL disposable plastic microfuge tube and ground in 0.25 mL of 50 mM Tris-HCl, 50 mM NaCl, 1 mM EDTA (TNE). The grinding was done using a motorized grinder with disposable plastic shafts designed to fit into the microfuge tube. The resultant suspensions were centrifuged for 5 min at room temperature in a microfuge to remove particulates. Approximately 0.1 mL of aqueous supernatant was removed between the pelleted material and the upper oil phase. The seed extracts were assayed for DHDPS activity as described in Example 4.
To assay for expression of the chimeric genes in leaves of the transformed plants, protein was extracted as described in Example 7 for AKIII, and as described in Example 9 for DHDPS. The leaf extracts were assayed for DHDPS activity as described in Examples 4 and 9. […] Extracts were characterized immunologically for expression of AKIII and DHDPS proteins via Western blots as described in Examples 7 and 10.

[1] = system: Gif106M1 transformed with pBT436; experiment: Growth inhibition by lysine in M9 media; format: cell-based, E. coli
Procedure: Addition of lysine (or diaminopimelate which is readily converted to lysine in vivo) at a concentration of approximately 0.2 mM to the growth medium inhibits the growth of Gif106M1 transformed with pBT436. M9 media [see Sambrook et al. (1989) Molecular Cloning, A Laboratory Manual, Cold Spring Harbor Laboratory Press] supplemented with the arginine and isoleucine, required for Gif106M1 growth, and ampicillin, to maintain selection for the pBT436 plasmid, was used. This inhibition is reversed by addition of threonine plus methionine to the growth media. […] This property of pBT436-transformed Gif106M1 was used to select for mutations in lysC that encoded lysine-insensitive AKIII.

T1 sequence (P08660 other isoform, or with tags, fused parts or gaps T352I/G401A): as the sequence (P08660 other isoform, or with tags, fused parts or gaps T352I/G401A) above

**Q.** Which “inhibition by L-lysine” value (AKIII-M3) does the source give for NCCCC[C@H](N)C(=O)O [L-lysine] here?
**A.** Its value is “not inhibited at all”.

**Q.** What about the “inhibition by L-lysine” value (AKIII-M4) of the same compound?
**A.** The value was “not inhibited at all”.

**Q.** And the “inhibition by L-lysine” value (AKIII-M2)?
**A.** Its value is “not inhibited at all”.

**Q.** And the “inhibition of wild type AKIII” value (Wild type AKIII; 1 mM lysine)?
**A.** Its value is over 90%.

**Q.** And the IC50 (Wild type AKIII; L-lysine concentration for fifty percent inhibition of AKIII, crude extract)?
**A.** Its IC50 is ~400 µM and 300 to 400 µM.

**Q.** And the “concentration that inhibits growth” value (DE126)?
**A.** Its value is 20 µg/mL.

**Q.** And the “inhibition by L-lysine” value (Corynebacterium DHDPS)?
**A.** Its value is “not inhibited at all”.

**Q.** What about the IC50 (E. coli DHDPS) of the same compound?
**A.** Its IC50 is about 500 µM.

**Q.** And the activity retained (E. coli DHDPS; 0.1 mM lysine, leaf extracts)?
**A.** The activity retained was 80-90%.

**Q.** And the activity retained (E. coli DHDPS; 0.4 mM lysine, seed extracts)?
**A.** Its activity retained is “about 50%”.

**Q.** And the “fold less sensitive to inhibition by lysine than a typical plant DHDPS” value (E. coli DHDPS; vs wheat germ DHDPS)?
**A.** The value was “about 20 fold”.

**Q.** And the inhibition by lysine (tobacco DHDPS; 0.1 mM lysine, leaf extracts)?
**A.** Its inhibition by lysine is “completely inhibited”.

**Q.** And the inhibition by lysine (tobacco DHDPS; 0.4 mM lysine, seed extracts)?
**A.** Its inhibition by lysine is “completely inhibited”.

**Q.** And the “concentration in growth medium that inhibits growth” value [1]?
**A.** The value was “approximately 0.2 mM”.

Reference: patent US7071383B2, “Chimeric genes and methods for increasing the lysine and threonine content of the seeds of plants” (E. I. du Pont de Nemours and Company, priority 1992, dated 2006)
